Measurements as given in patent US9060512B2, “Biocide compositions (III)” (Cognis IP Management GmbH, priority 2009, dated 2015).

Experiments:
[1] = tested on: Hemp sesbania (Sesbania exaltata=Bayer Code=SEBEX); assay: Weed control with glyphosate IPA salt, optionally with adjuvant; assay type: in vivo
Method: (§1) Two weeds, Velvet leaf (Abutilion theophrasti=Bayer Code: ABUTH) and Hemp sesbania (Sesbania exaltata=Bayer Code=SEBEX) were treated with a suboptimum rate of 270 g a.e./ha glyphosate IPA salt, optionally in the presence of N,N-Dimethyl levulinic acid amide as an adjuvant (spray volume: 200 l/ha) with three replications over a period of 21 days. Assessments took place for SEBEX after 10 and for ABUTH 20 days after treatment. The efficacy of the biocide/adjuvant composition was determined against a control where the number of weeds in a similar untreated area was set to 0%.

[2] = tested on: Velvet leaf (Abutilion theophrasti=Bayer Code: ABUTH); assay: as above; assay type: in vivo; details: 270 g/ha glyphosate IPA salt, spray volume 200 l/ha, 20 days after treatment, untreated area = 0%
Method: as §1

CC(C)N.O=C(O)CNCP(=O)(O)O [C3, glyphosate IPA salt]
SEBEX Control (weed control) ([1]; 270 g/ha glyphosate IPA salt, spray volume 200 l/ha, 10 days after treatment, untreated area = 0%): 50 %-rel. | ABUTH Control (weed control) [2]: 82 %-rel.

CC(=O)CCC(=O)N(C)C [Example 6, Levulinic acid dimethylamide]
weed control performance of glyphosate on addition of adjuvant ([1]; summary in words, SEBEX and ABUTH): improves the weed control performance of glyphosate significantly
